Measured values taken from patent publication US20180057505A1, “BICYCLIC HETEROARYL COMPOUNDS USEFUL AS INHIBITORS OF THE PAR-2 SIGNALING PATHWAY” (VERTEX PHARMACEUTICALS INCORPORATED, priority 2015, published 2018).

What was measured:
[1] = In vivo rat pharmacokinetics experiments; settings: for F: oral gavage, dose 1 to 600 mg/kg
Method: Example 99: Protocol for Testing PAR2 Compounds In Vivo Rat Pharmacokinetics Experiments
Compounds delivered by intravenous route were formulated using a solution formulation consisting of 5% N-methylpyrrolidone 10% Vitamin E-TPGS and 85% water (v/v/) or a solution formulation consisting of 25% N-methylpyrrolidone 35% polyethylene glycol 400 and 40% water (v/v/). Intravenous formulations were administered by a bolus injection (over approximately 10 seconds) using a hypodermic needle attaches to a syringe (tail vein). The dose volume was varied from 1 to 2 mL/kg and the dose was varied from 0.5 to 1 mg/kg. Compounds delivered orally were formulated as a solution formulation consisting of 5% N-methylpyrrolidone 10% Vitamin E-TPGS and 85% water (v/v/) or as fine suspension using a cellulose derivative suspending agent with or without the addition of a wetting agent/surfactant. Milling of large particles was performed as needed to reduce particle size using focused electroacoustic milling, homogenization or low energy media milling. A spray-dried solid dispersion was prepared for key compounds using 1:1 combination with cellulose derivatives. Test compounds were administered orally by gavage using a gavage plastic needle attached to a syringe. The dose volume was varied from 5 to 10 mL/kg and the dose was varied from 1 to 600 mg/kg.
Rats were bled by venipuncture (jugular vein) and the samples were collected into tubes containing K3EDTA. The tubes were placed on wet ice until processed. The samples were centrifuged for approximately 10 minutes (at approximately 4° C.) within approximately 30 minutes of collection to prepare plasma or diluted in citrate buffer (1:3) and stored frozen (approximately −30° C.). Thawed plasma or whole blood samples were extracted by protein precipitation using an organic solvent followed by centrifugation. The supernatants were separated by high-performance liquid chromatography coupled to mass spectrometry detection. A calibration curve was prepared using reference standard compounds spiked into either blank plasma or whole blood matrices and extracted similarly to unknown samples. Pharmacokinetic parameters were calculated using non-compartmental analysis.

[2] = tested on: carrageenan induced paw edema; assay: Rat carrageenan-induced paw edema model; type: in vivo; settings: given 0.5-3 hour before carrageenan
Method: Example 100: In Vivo Pharmacological Evaluation of PAR2 Pathway Inhibitors Subjects and Housing and Rat Carrageenan-Induced Paw Edema Model Male Sprague Dawley rats were housed in groups in a temperature controlled room and were acclimatized in the animal facility for at least three days prior to use. Experiments were performed during the light phase of the cycle. Animals have food and water ad libitum. Peripheral inflammation was induced by intra-plantar administration of 100 ul of a 1% w/volume (in saline) carrageenan solution under isoflurane anesthesia. The degree of swelling was assessed using the plethysmometer at 2-3-4-5-6 h after carrageenan injection. Test compound or vehicle (0.5% MC/0.1% SDS) was systemically administered at the indicated doses in a volume of 5 mL/kg either 0.5-3 hour before carrageenan challenge (Table 4).

PAR2 (HT-29 cells) [3] = molecular target: T1, PAR2 (HT-29 cells) (Homo sapiens, UniProt P55085); assay: Ca FLIPR TETRA assay, ANTAGONIST mode, activator 3.1 U/mL trypsin; type: cell-based; settings: HT-29 cells; activator 3.1 U/mL trypsin; Method A: maximal concentration of antagonist 0.1, 1 or 2 μM
T1 construct: host or cells: HT-29
T1 sequence (P55085 26-397): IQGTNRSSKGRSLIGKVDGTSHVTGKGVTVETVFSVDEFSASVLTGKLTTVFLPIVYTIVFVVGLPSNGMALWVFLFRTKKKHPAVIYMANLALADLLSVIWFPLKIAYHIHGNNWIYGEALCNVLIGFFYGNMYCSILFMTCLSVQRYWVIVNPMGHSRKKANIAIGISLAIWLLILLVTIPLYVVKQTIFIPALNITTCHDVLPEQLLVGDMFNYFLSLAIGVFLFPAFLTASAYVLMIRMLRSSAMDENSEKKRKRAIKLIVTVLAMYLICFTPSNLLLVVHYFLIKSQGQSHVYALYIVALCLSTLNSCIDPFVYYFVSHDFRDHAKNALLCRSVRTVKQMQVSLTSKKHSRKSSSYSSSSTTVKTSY
Method in brief: (§1)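 Fluorescent Ca2+ dye (calcium 5) loading of overnight-plated HT-29 cells preceded compound addition and a 30 min room-temperature incubation. Responses to the specified activator concentration were then read by FLIPR Tetra in the same plate.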

[4] = tested on: Thrombin-stimulated Ca2+ response in HT-29 cells; assay: Ca FLIPR TETRA assay, ANTAGONIST mode, activator 1 U/mL Thrombin; type: cell-based; settings: Homo sapiens; HT-29 cells, activator 1 U/mL Thrombin
Method in brief: as §1

PAR2 (HT-29 cells) [5] = molecular target: T1, PAR2 (HT-29 cells); assay: Ca FLIPR TETRA assay, ANTAGONIST mode, activator 8 μM SLIGKV; type: cell-based; settings: HT-29 cells; activator 8 μM SLIGKV; Method A: maximal concentration of antagonist 0.1, 1 or 2 μM
Method in brief: as §1

[6] = tested on: UTP-stimulated Ca2+ response in HT-29 cells; assay: Ca FLIPR TETRA assay, ANTAGONIST mode, activator 0.6 μM UTP; type: cell-based; settings: Homo sapiens; HT-29 cells, activator 0.6 μM UTP
Method in brief: as §1

[7] = intravenous bolus 0.5 to 1 mg/kg, non-compartmental analysis

SMILES | Clp [1, 7] [mL/min/kg] | T ½ ([1]; non-compartmental analysis) [h] | F [1] [%] | % inhibition ([2]; dose 20 mg/kg) [%] | further results
CC1(C)CCC(c2cc(C(C)(C)C)c3oc(C(=O)N4CCN(C(=O)CCC(C)(C)C(=O)O)CC4(C)C)cc3n2)CC1 [Compound I-354] | 32 | 0.57 | 52 | 60 | –
CC(C)(C)c1cc(-c2ccc(Cl)c(F)c2)nc2cc(C(=O)N3CCN(c4ncc(-c5nnn[nH]5)cn4)CC3(C)C)oc12 [Compound I-331] | 8.9 | 1.6 | – | 27 | –
CC(C)(CCC(=O)N1CCN(C(=O)c2cc3nc(-c4ccc(Cl)c(F)c4)cc(C(C)(C)C)c3o2)C(C)(C)C1)C(=O)O [Compound I-367] | 28 | 0.32 | 2.7 | 68 | –
CC1(C)CCC(c2cc(C(C)(C)C)c3oc(C(=O)N4CCN(c5ncc(-c6nnn[nH]6)cn5)CC4(C)C)cc3n2)CC1 [Compound I-346] | 16.5 | 0.44 | 4.7 | 60 | –
CC1(C)CCC(c2cc(C(C)(C)C)c3oc(C(=O)N4CCN(C(=O)CC5(C(=O)O)CCC5)CC4(C)C)cc3n2)CC1 [Compound I-338] | 33 | 0.5 | – | 0 | –
CC1(C)CCC(c2cc(C(C)(C)C)c3oc(C(=O)N4CCN(c5cccc(C(=O)O)n5)CC4(C)C)cc3n2)CC1 [Compound I-449] | 5.0 | 5.3 | 119 | – | % inhibition ([2]; dose 15 mg/kg): 22%
Cc1ccc(C(=O)O)c(N2CCN(C(=O)c3cc4nc(-c5ccc(Cl)c(F)c5)cc(C(C)(C)C)c4o3)C(C)(C)C2)n1 [Compound I-352] | 6.5 | 5.6 | 48 | 61 | –
CC(C)(C)c1cc(-c2ccc(Cl)c(F)c2)nc2cc(C(=O)N3CCN(c4ccn[nH]4)C(=O)C3(C)C)oc12 [Compound I-406] | 3.6 | 23.2 | 66 | 21 | –
Cc1nc(N2CCN(C(=O)c3cc4nc(-c5ccc(Cl)c(F)c5)cc(C(C)(C)C)c4o3)C(C)(C)C2)ccc1C(=O)O [Compound I-411] | 6.5 | 2.0 | 70 | – | % inhibition ([2]; dose 8 mg/kg): 36%
Cc1nc(N2CCN(C(=O)c3cc4nc(C5CCC(C)(C)CC5)cc(C(C)(C)C)c4o3)C(C)(C)C2)ncc1C(=O)O [Compound I-465] | 9.2 | 5.1 | 46 | 6 | –
CC(C)[C@H](CC(=O)N1CCN(C(=O)c2cc3nc(-c4ccc(Cl)c(F)c4)cc(C(C)(C)C)c3o2)C(C)(C)C1)C(=O)O [Compound I-343] | 53 | 0.33 | 27 | 29 | –
CC(C)(C)c1cc(-c2ccc(Cl)c(F)c2)nc2cc(C(=O)N3CCN(c4cn[nH]c4)C(=O)C3(C)C)oc12 [Compound I-260] | 3.4 | 30.7 | 87 | 0.4 | –
CC(C)(C)c1cc(-c2ccc(Cl)c(F)c2)nc2cc(C(=O)N3CCN(c4ccc(C(=O)O)cn4)CC3(C)C)oc12 [Compound I-287] | 5.2 | 3.7 | 58 | – | % inhibition ([2]; dose 200 mg/kg): 30%
CC(C)(C)c1cc(-c2ccc(Cl)c(F)c2)nc2cc(C(=O)N3CCN(c4cccc(C(=O)O)n4)CC3(C)C)oc12 [Example I-448, 6-[4-[7-tert-butyl-5-(4-chloro-3-fluoro-phenyl)furo[3,2-b]pyridine-2-carbonyl]-3,3-dimethyl-piperazin-1-yl]pyridine-2-carboxylic acid] | – | – | 125 | 21 | IC50 (PAR2 (HT-29 cells) [3]): 0.3 nM; IC50 [4]: 2000 nM; IC50 (PAR2 (HT-29 cells) [5]): 0.2 nM; IC50 [6]: 1790 nM; clearance ([1]; plasma, intravenous bolus 0.5 to 1 mg/kg, non-compartmental analysis, read-out: Clp): 9.3 mL/min/kg; half-life ([1]; plasma, non-compartmental analysis, read-out: T ½ (converted)): 5.2 h; % inhibition ([2]; dose 0.8 mg/kg): 11%; % inhibition ([2]; dose 3 mg/kg): 18%; % inhibition ([2]; dose 10 mg/kg): 30%
CC1(C)CCC(c2cc(C(C)(C)C)c3oc(C(=O)N4CCN(C(=O)[C@H]5CC[C@@](C)(C(=O)O)CC5)CC4(C)C)cc3n2)CC1 [Compound I-316] | 13.9 | 1.0 | 49 | 38 | % inhibition ([2]; dose 5 mg/kg): 25%
CC(C)(C)c1cc(-c2ccc(Cl)c(F)c2)nc2cc(C(=O)N3CCN(C(=O)CC4(C(=O)O)CCCC4)CC3(C)C)oc12 [Compound I-324] | 21.3 | 0.47 | 19 | 71 | –
CC(C)(C)c1cc(-c2ccc(Cl)c(F)c2)nc2cc(C(=O)N3CCN(c4cccc(-c5nnn[nH]5)n4)CC3(C)C)oc12 [Compound I-344] | 10.2 | 0.99 | 24 | 43 | –
CC1(C)CCC(c2cc(C(C)(C)C)c3oc(C(=O)N4CCN(c5cccc(-c6nnn[nH]6)n5)CC4(C)C)cc3n2)CC1 [Compound I-345] | 7.6 | 1.8 | 52 | – | % inhibition ([2]; dose 15 mg/kg): 28%
